Reference: patent US8222210B2 (priority 2005, dated 2012)

Legend:
full thickness wound = assay: full thickness 7 mm punch wound in the back of rats, hyaluronic acid vehicle (FIG. 10); type: in vivo; details: after 6 days, 16 rats, both wounds received hyaluronic acid vehicle
Description: FIG. 10 represents the percent healing after 6 days for a full thickness wound in the back of 16 different rats. The initial wound size was a 7 mm punch wound. Each rat received two wounds, a control (no SP) and an SP treated wound. Both wounds received a hyaluronic acid vehicle.
Supplemental growth factors have the ability to accelerate wound healing in a variety of experimental animal models (EE). This has even led to clinical trials. However, the human studies have not been as successful as the animal models. Due to the complexity of the interaction of different growth factors, it is likely that the right combination of different growth factors has not been explored.

[1] = tested on: full thickness skin punch wounds; assay: full thickness skin punch wound healing in a rat model (topical, AQUAPHOR); type: in vivo, Sprague-Dawley rats; details: for percentage decrease of the wound area versus control wounds (paired T-test): SP p<0.025, selenocystamine at the 0.05 level; for % decrease in wound size (wound area day 6 compared with day 0): rat punch wound, topical once a day, SP 0.05%, selenocystamine 10 ug Se/ml
Method: In addition, selenocystamine was tested as a potential wound treatment at the same time.
Twenty-one male Sprague-Dawley rats weighing between 300-350 g were used in this study. The rats were housed in the temperature controlled vivarium at Texas Tech Health Science Center with a 12-hour alternating light cycle, and were provided water and rat chow ad libitum. Animals were allowed several days of adjustment upon arrival before the surgery to get rehydrated and familiar with the environment. The study protocol was approved by the Texas Tech University Health Sciences Center Animal Care and Use Committee which assured that the animals received humane care.
On the day of the surgery (day 0), the rats were weighed and anesthetized with 1 ml/kg intraperitoneal (IP) injection of the solution made up of 3 parts XYLAZINE® and 7 parts of KETASET®. The animals' backs and necks were shaved and prepared aseptically. Lack of response to tail pinch and absence of a righting reflex were used as indications that anesthesia was adequate. Supplemental anesthetic was administered IP as necessary to maintain an adequate anesthesia.
A 7 mm-diameter punch (George Tiemann & Co.) was used to introduce the punch wound. The procedure was to fold the skin along the sagittal axis and put it down left or right side (rotate animal by animal) against a hard surface, then to thrust the punch through the two layers of skin. In this way, two identical punch wounds were obtained. Four wounds were introduced on each animal. The four wounds were arranged in two columns parallel to the sagittal axis and two rows parallel to the transverse axis.
After the wound procedure, three different treatments were assigned to the wounds. […] The two under were assigned selenocystamine treatment. For the control wound, a drop of normal saline was applied followed by a layer of AQUAPHOR™ to cover the wound. For the SP wound, a drop of 0.05% (0.5 mg/ml) SP water solution was applied followed by a layer of 0.05% (0.5 mg/g) SP-AQUAPHOR™ to cover the wound. For the selenocystamine wounds, a drop of selenocystamine water solution (10 ug Se/ml) was applied to each wound followed by a layer of selenocystamine-AQUAPHOR™ ([…]) to cover the wound. Then gauze and tape were applied to secure the wound. The animals were held under warming lights and observed until they were fully recovered from the anesthesia and then were returned to the vivarium. All the treatment agents and placebo were stored in a refrigerator. Dressing changes and treatments were performed once a day until the animals were sacrificed on day 6. The assignments and dosage of the treatments were as described above.
Following the surgery, the wounds were measured in two dimensions: sagittal and transverse. Photographs were taken using a PENTAX® ESPIO 928 camera and Kodak® ISO 200 color film. After the animals were sacrificed on day 6, the eschars covering the wounds were removed. Then the wounds were again measured in two dimensions, and photographs were taken.
The animals were sacrificed on day 6 after the surgery by euthanasia with […]® (Sodium Pentobarbital, 7.9% isopropanol, euthanasia solution). The entire wound plus a 1 mm margin of normal skin from each of the test and control wound sites on each animal was excised and preserved in buffered formalin.
The product obtained by multiplying the two measurements of each wound was referred to as the area of the wound. The percentage of the decrease of the wound area on day 6 compared with day 0 was used to evaluate the rate of healing. Since the exact time of wound healing was difficult to determine, day 6 was chosen.
Mean and standard deviations were determined on the difference of the percentage of the wound area decrease between each treatment and the control. Significant differences between treatments and the control were determined by paired T-test to see if the percentage of the decrease in wound area was greater for the treated wounds than for the control wound. […]

NK1 and NK3 receptors = details: rabbit iris; cited from earlier work
NK1 receptor [2] = assay: rabbit iris sphincter smooth muscle contraction; type: cell-based, New Zealand White rabbits; details: for biological activity relative to SP: rabbit iris sphincter muscle contraction
Description: The biological assay chosen for this study was smooth muscle contraction with the rabbit iris sphincter. […] The conformational investigations involved ^1H-NMR analyses of a set of β-MeF-containing SP analogs, and a computational study of the effects that the introduction of a β-methyl group in the Phe^7 and/or Phe^8 residues has upon an energy minimized structure of the peptide, using the helical structure of SP derived by Young et al. (1994) as a starting point for the calculations.
New Zealand White rabbits were sacrificed by an i.v. overdose of sodium pentobarbital. The eyes were then enucleated and the iris/ciliary body was isolated. Central regions of the iris sphincter muscle was then isolated and the tissue bisected, producing two iris sphincter muscle preparations. The muscle strips were connected to a Grass force-displacement transducer with an initial loading force of 100 mg placed on the muscle. The tissue was then allowed to equilibrate for 60 minutes. Contractions were recorded by a Grass 7 Physiograph. Tissues were bathed at 37° C. in a 50 ml modified Ringer's solution (90 mM NaCl, 3.6 mM KCl, 20 mM HEPES (sodium salt), 0.6 mM MgCl, 7.5 mM Na2SO4, 1.4 mM Ca-gluconate, 20 mM NaHCO3, 0.6 mM MgSO4, 0.6 mM K2HPO4 and 26 mM glucose). The Ringer's solution was gassed with 95% air/5% CO2 (pH 7.4). […] To block potential proteolytic effects the following proteolysis inhibitors were added: 1 μM thiorphan, 1 μM phosphoramidon, 1 μM captopril, 3 μg/ml leupeptin, and 3 μg/ml chymostatin.
To evaluate the viability of each muscle preparation, maximum contraction was determined by a 10^−5 M dose of carbachol at the beginning and end of each experiment. Following the initial carbachol dose, tissues were washed by three exchanges of Ringer's solutions. Previous studies have shown that this is sufficient to remove carbachol from these solutions and to return the resting tension to normal values. Each peptide was then evaluated for its ability to induce sphincter muscle contraction, and dose-response curves (from 2×10^−11 to 7×10^−7 M) were determined. A minimum of four determinations were performed for each experimental condition. The dose response curves were fit by means of a nonlinear regression analysis program (Sigma Plot®, Jandel Scientific).
Therefore, since the binding of SP to the NK1 and NK3 receptors in the rabbit iris differs by a factor of over 20, it is reasonable to assume that the contraction of the rabbit iris sphincter by βMeF-containing SP analogs primarily reflect the activation of the NK1 receptor.

NK1 receptor [3] = target: NK1 receptor (Homo sapiens, UniProt P25103); details: cited from earlier work
Chain of NK1 receptor (Homo sapiens, UniProt P25103) (P25103 whole entry, species assumed): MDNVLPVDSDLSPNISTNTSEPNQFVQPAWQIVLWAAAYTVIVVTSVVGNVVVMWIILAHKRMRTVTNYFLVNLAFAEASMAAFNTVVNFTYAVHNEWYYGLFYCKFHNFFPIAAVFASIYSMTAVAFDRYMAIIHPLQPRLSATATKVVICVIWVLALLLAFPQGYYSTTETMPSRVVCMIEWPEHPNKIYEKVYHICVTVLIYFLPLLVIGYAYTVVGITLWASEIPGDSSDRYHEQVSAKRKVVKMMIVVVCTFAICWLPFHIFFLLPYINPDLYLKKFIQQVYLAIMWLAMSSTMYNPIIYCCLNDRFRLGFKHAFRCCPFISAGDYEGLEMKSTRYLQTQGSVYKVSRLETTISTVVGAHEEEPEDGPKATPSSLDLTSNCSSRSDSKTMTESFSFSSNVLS

cellular growth = cellular growth promoting activity (description); type: cell-based

RPKPQQFFGLM (SEQ ID NO:1) [SP]
control wounds showing more percent healing than the SP wound on the same rat (full thickness wound): 4 out of 16
percentage decrease of the wound area versus control wounds (paired T-test) ([1]; day 6): significantly higher than that of the control wounds
% decrease in wound size (wound area day 6 compared with day 0) ([1]; day 6): 41.6±15.0%
wound with the greatest decrease in size ([1]; single wound of the treatment group, day 6): 66.7%
factor by which binding to NK1 and NK3 receptors differs (NK1 and NK3 receptors): over 20
doses producing a rapid increase in the force of contraction (NK1 receptor [2]; rabbit iris sphincter muscle): greater than 10^−10 M
maximum effective dose (NK1 receptor [2]; rabbit iris sphincter muscle): 10^−7 M

QFFGLM (SEQ ID NO:8) (listed as Homo sapiens) [SP6-11, reference compound]
activity as % of that found for the whole SP molecule (NK1 receptor [3]): 50-90%
cellular growth promoting activity (cellular growth): active in promoting cellular growth

7R,8R-(βMeF)2SP: Substance P analog with R-β-methylphenylalanine at positions 7 and 8
biological activity relative to SP (NK1 receptor [2]): the least active analog
biological activity relative to SP (NK1 receptor [2]; listed as 7R,8R-(β-MeF)2SP): diminish the biological activity by a factor of ten

7R-(βMeF)SP: Substance P analog with R-β-methylphenylalanine at position 7
biological activity relative to SP (NK1 receptor [2]): equipotent to SP

7S,8S-(βMeF)2SP: Substance P analog with S-β-methylphenylalanine at positions 7 and 8
biological activity relative to SP (NK1 receptor [2]): most active disubstituted SP analogs
biological activity relative to SP (NK1 receptor [2]; listed as 7S,8S-(β-MeF)2SP): enhance the activity

8R-(βMeF)SP: Substance P analog with R-β-methylphenylalanine at position 8
biological activity relative to SP (NK1 receptor [2]): the most active SP analog
biological activity relative to SP (NK1 receptor [2]; listed as R-β-MeF into position 8 of SP): four-fold enhancement

7S-(βMeF)SP: Substance P analog with S-β-methylphenylalanine at position 7
biological activity relative to SP (NK1 receptor [2]): slightly more active than SP

SEQ ID NO:9: substitution peptide where norleucine has been substituted for the C-terminus methionine in Substance P (RPKPQQFFGLX; (11)..(11) Norleucine; listed as Homo sapiens)
cellular growth promoting activity (cellular growth): enhanced activity under at least some treatment conditions

7R,8S-(βMeF)2SP: Substance P analog with R-β-methylphenylalanine at position 7 and S- at position 8
biological activity relative to SP (NK1 receptor [2]): most active disubstituted SP analogs
biological activity relative to SP (NK1 receptor [2]; listed as 7R,8S-(β-MeF)2SP): enhance the activity

NCC[Se][Se]CCN [selenocystamine, reference compound]
percentage decrease of the wound area versus control wounds (paired T-test) ([1]; day 6): not significantly higher than the control
% decrease in wound size (wound area day 6 compared with day 0) ([1]; day 6): 31.8±18.3%
wound enlargement (one wound of the group) ([1]; six day period): 2.9%

8S-(βMeF)SP: Substance P analog with S-β-methylphenylalanine at position 8
biological activity relative to SP (NK1 receptor [2]): the least active of the monosubstituted analogs
biological activity relative to SP (NK1 receptor [2]; listed as S-β-MeF into position 8 of SP): ten-fold reduction

7S,8R-(βMeF)2SP: Substance P analog with S-β-methylphenylalanine at position 7 and R- at position 8
biological activity relative to SP (NK1 receptor [2]): equipotent (to SP)
biological activity relative to SP (NK1 receptor [2]; listed as 7S,8R-(β-MeF)2SP): do not significantly alter the activity
